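GI50 marks 50% less growth. TGI is the concentration that stops growth completely.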
How the values were obtained:
Experiment in all cases: DTP human tumour cell line panel, 384-well format
NCI-H522 lung = tested on: NCI-H522 lung
T-47D breast = tested on: T-47D breast
OVCAR-4 ovarian = tested on: OVCAR-4 ovarian
OVCAR-3 ovarian = tested on: OVCAR-3 ovarian
ACHN renal = tested on: ACHN renal
HCT-116 colon = tested on: HCT-116 colon
RPMI-8226 leukemia = tested on: RPMI-8226 leukemia
HOP-62 NSCLC = tested on: HOP-62 NSCLC
EKVX NSCLC = tested on: EKVX NSCLC
HL-60(TB) leukemia = tested on: HL-60(TB) leukemia
OVCAR-5 ovarian = tested on: OVCAR-5 ovarian
SW-620 colon = tested on: SW-620 colon
NCI-H23 lung = tested on: NCI-H23 lung
MDA-MB-468 breast = tested on: MDA-MB-468 breast
K-562 leukemia = tested on: K-562 leukemia
MOLT-4 leukemia = tested on: MOLT-4 leukemia
RXF 393 renal = tested on: RXF 393 renal
CAKI-1 renal = tested on: CAKI-1 renal
HS 578T breast = tested on: HS 578T breast
SF-539 CNS = tested on: SF-539 CNS
786-0 renal = tested on: 786-0 renal
A498 renal = tested on: A498 renal
SK-OV-3 ovarian = tested on: SK-OV-3 ovarian
A549 NSCLC = tested on: A549 NSCLC
MALME-3M melanoma = tested on: MALME-3M melanoma
IGROV1 ovarian = tested on: IGROV1 ovarian
BT-549 breast = tested on: BT-549 breast
PC-3 prostate = tested on: PC-3 prostate
NCI-H226 lung = tested on: NCI-H226 lung
HCT-15 colon = tested on: HCT-15 colon
CCRF-CEM leukemia = tested on: CCRF-CEM leukemia
M14 melanoma = tested on: M14 melanoma
SF-268 CNS = tested on: SF-268 CNS
SK-MEL-5 melanoma = tested on: SK-MEL-5 melanoma
UACC-257 melanoma = tested on: UACC-257 melanoma
MDA-MB-435 melanoma = tested on: MDA-MB-435 melanoma
OVCAR-8 ovarian = tested on: OVCAR-8 ovarian
NCI/ADR-RES ovarian = tested on: NCI/ADR-RES ovarian
KM12 colon = tested on: KM12 colon
NCI-H322M lung = tested on: NCI-H322M lung
HCC-2998 colon = tested on: HCC-2998 colon
LOX IMVI melanoma = tested on: LOX IMVI melanoma
SK-MEL-28 melanoma = tested on: SK-MEL-28 melanoma
MDA-MB-231 breast = tested on: MDA-MB-231 breast
NCI-H460 NSCLC = tested on: NCI-H460 NSCLC
SN12C renal = tested on: SN12C renal
COLO 205 colon = tested on: COLO 205 colon
U251 glioblastoma = tested on: U251 glioblastoma
UO-31 renal = tested on: UO-31 renal
UACC-62 melanoma = tested on: UACC-62 melanoma
SK-MEL-2 melanoma = tested on: SK-MEL-2 melanoma
SF-295 CNS = tested on: SF-295 CNS
HT29 colon = tested on: HT29 colon

Q: How did the GI50 (NCI-H522 lung) turn out when `CS(=O)(=O)Nc1cc(-c2ccc3ncnc(Nc4ccc(F)c(Cl)c4)c3c2)cnc1Cl` was run?
A: 547 nM

Q: And the TGI (NCI-H522 lung)?
A: 2360 nM

Q: And the GI50 (T-47D breast)?
A: 85.5 nM

Q: And the TGI (T-47D breast)?
A: 548 nM

Q: And the GI50 (OVCAR-4 ovarian)?
A: 1220 nM

Q: And the TGI (OVCAR-4 ovarian)?
A: 4450 nM

Q: And the GI50 (OVCAR-3 ovarian)?
A: 457 nM

Q: What about the TGI (OVCAR-3 ovarian) of the same compound?
A: 1850 nM

Q: What about the GI50 (ACHN renal) of the same compound?
A: 1800 nM

Q: What about the TGI (ACHN renal) of the same compound?
A: > 100000 nM

Q: What about the GI50 (HCT-116 colon) of the same compound?
A: 1140 nM

Q: What about the TGI (HCT-116 colon) of the same compound?
A: 2640 nM

Q: And the GI50 (RPMI-8226 leukemia)?
A: 370 nM

Q: What about the TGI (RPMI-8226 leukemia) of the same compound?
A: 1580 nM

Q: What about the GI50 (HOP-62 NSCLC) of the same compound?
A: 1430 nM

Q: And the TGI (HOP-62 NSCLC)?
A: 5190 nM

Q: And the GI50 (EKVX NSCLC)?
A: 498 nM

Q: And the TGI (EKVX NSCLC)?
A: 2060 nM

Q: What about the GI50 (HL-60(TB) leukemia) of the same compound?
A: 158 nM

Q: And the TGI (HL-60(TB) leukemia)?
A: 1060 nM

Q: What about the GI50 (OVCAR-5 ovarian) of the same compound?
A: 939 nM

Q: What about the TGI (OVCAR-5 ovarian) of the same compound?
A: 4550 nM

Q: And the GI50 (SW-620 colon)?
A: 1650 nM

Q: And the TGI (SW-620 colon)?
A: 3840 nM

Q: And the GI50 (NCI-H23 lung)?
A: 1150 nM

Q: What about the TGI (NCI-H23 lung) of the same compound?
A: 4030 nM

Q: What about the GI50 (MDA-MB-468 breast) of the same compound?
A: 253 nM

Q: And the TGI (MDA-MB-468 breast)?
A: 769 nM

Q: What about the GI50 (K-562 leukemia) of the same compound?
A: 1520 nM

Q: What about the TGI (K-562 leukemia) of the same compound?
A: 10600 nM

Q: And the GI50 (MOLT-4 leukemia)?
A: 160 nM

Q: And the TGI (MOLT-4 leukemia)?
A: 348 nM

Q: And the GI50 (RXF 393 renal)?
A: 450 nM

Q: And the TGI (RXF 393 renal)?
A: 1960 nM

Q: What about the GI50 (CAKI-1 renal) of the same compound?
A: 492 nM

Q: And the TGI (CAKI-1 renal)?
A: 2020 nM

Q: And the GI50 (HS 578T breast)?
A: 501 nM

Q: What about the TGI (HS 578T breast) of the same compound?
A: 2310 nM

Q: And the GI50 (SF-539 CNS)?
A: 1480 nM

Q: What about the TGI (SF-539 CNS) of the same compound?
A: 5050 nM

Q: What about the GI50 ([…]-0 renal) of the same compound?
A: 1350 nM

Q: What about the TGI (786-0 renal) of the same compound?
A: 4820 nM

Q: What about the GI50 (A498 renal) of the same compound?
A: 905 nM

Q: And the TGI (A498 renal)?
A: 4060 nM

Q: And the GI50 (SK-OV-3 ovarian)?
A: 635 nM

Q: What about the TGI (SK-OV-3 ovarian) of the same compound?
A: 3320 nM

Q: And the GI50 (A549 NSCLC)?
A: 1370 nM

Q: And the TGI (A549 NSCLC)?
A: 2840 nM

Q: What about the GI50 (MALME-3M melanoma) of the same compound?
A: 293 nM

Q: What about the TGI (MALME-3M melanoma) of the same compound?
A: 1640 nM

Q: And the GI50 (IGROV1 ovarian)?
A: 154 nM

Q: What about the TGI (IGROV1 ovarian) of the same compound?
A: 471 nM

Q: What about the GI50 (BT-549 breast) of the same compound?
A: 573 nM

Q: What about the TGI (BT-549 breast) of the same compound?
A: 2340 nM

Q: And the GI50 (PC-3 prostate)?
A: 872 nM

Q: And the TGI (PC-3 prostate)?
A: 2280 nM

Q: What about the GI50 (NCI-H226 lung) of the same compound?
A: 1440 nM

Q: And the TGI (NCI-H226 lung)?
A: 13400 nM

Q: And the GI50 (HCT-15 colon)?
A: 885 nM

Q: And the TGI (HCT-15 colon)?
A: 3140 nM

Q: What about the GI50 (CCRF-CEM leukemia) of the same compound?
A: 166 nM

Q: What about the TGI (CCRF-CEM leukemia) of the same compound?
A: 466 nM

Q: And the GI50 (M14 melanoma)?
A: 1140 nM

Q: What about the TGI (M14 melanoma) of the same compound?
A: 4000 nM

Q: What about the GI50 (SF-268 CNS) of the same compound?
A: 1420 nM

Q: And the TGI (SF-268 CNS)?
A: 2900 nM

Q: And the GI50 (SK-MEL-5 melanoma)?
A: 1030 nM

Q: What about the TGI (SK-MEL-5 melanoma) of the same compound?
A: 2220 nM

Q: And the GI50 (UACC-257 melanoma)?
A: 1360 nM

Q: And the TGI (UACC-257 melanoma)?
A: 5540 nM

Q: What about the GI50 (MDA-MB-435 melanoma) of the same compound?
A: 1380 nM

Q: And the TGI (MDA-MB-435 melanoma)?
A: 7870 nM

Q: And the GI50 (OVCAR-8 ovarian)?
A: 1910 nM

Q: And the TGI (OVCAR-8 ovarian)?
A: 10100 nM

Q: And the GI50 (NCI/ADR-RES ovarian)?
A: 3600 nM

Q: What about the TGI (NCI/ADR-RES ovarian) of the same compound?
A: 40300 nM

Q: What about the GI50 (KM12 colon) of the same compound?
A: 2860 nM

Q: And the TGI (KM12 colon)?
A: 19900 nM

Q: What about the GI50 (NCI-H322M lung) of the same compound?
A: 1190 nM

Q: What about the TGI (NCI-H322M lung) of the same compound?
A: 3360 nM

Q: What about the GI50 (HCC-2998 colon) of the same compound?
A: 1180 nM

Q: What about the TGI (HCC-2998 colon) of the same compound?
A: 2620 nM

Q: What about the GI50 (LOX IMVI melanoma) of the same compound?
A: 1220 nM

Q: And the TGI (LOX IMVI melanoma)?
A: 2560 nM

Q: What about the GI50 (SK-MEL-28 melanoma) of the same compound?
A: 728 nM

Q: What about the TGI (SK-MEL-28 melanoma) of the same compound?
A: 8860 nM

Q: And the GI50 (MDA-MB-231 breast)?
A: 2330 nM

Q: What about the TGI (MDA-MB-231 breast) of the same compound?
A: > 100000 nM

Q: And the GI50 (NCI-H460 NSCLC)?
A: 1010 nM

Q: And the TGI (NCI-H460 NSCLC)?
A: 3840 nM

Q: And the GI50 (SN12C renal)?
A: 524 nM

Q: And the TGI (SN12C renal)?
A: 5250 nM

Q: And the GI50 (COLO 205 colon)?
A: 1210 nM

Q: And the TGI (COLO 205 colon)?
A: 2990 nM

Q: What about the GI50 (U251 glioblastoma) of the same compound?
A: 691 nM

Q: And the TGI (U251 glioblastoma)?
A: 2110 nM

Q: And the GI50 (UO-31 renal)?
A: 639 nM

Q: What about the TGI (UO-31 renal) of the same compound?
A: 2420 nM

Q: And the GI50 (UACC-62 melanoma)?
A: 1040 nM

Q: What about the TGI (UACC-62 melanoma) of the same compound?
A: 2550 nM

Q: What about the GI50 (SK-MEL-2 melanoma) of the same compound?
A: 1200 nM

Q: What about the TGI (SK-MEL-2 melanoma) of the same compound?
A: 2550 nM

Q: And the GI50 (SF-295 CNS)?
A: 1290 nM

Q: And the TGI (SF-295 CNS)?
A: 2930 nM

Q: And the GI50 (HT29 colon)?
A: 1110 nM

Q: What about the TGI (HT29 colon) of the same compound?
A: 2520 nM
